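Five concentrations, 48 hours, 96-well plates. The concentration for 50% growth inhibition is given as GI50. TGI marks complete inhibition of growth.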
What was measured:
Test in all cases: DTP human tumour cell line panel, 48 h
[1] = tested on: ACHN renal
[2] = tested on: UACC-257 melanoma
[3] = tested on: A549 NSCLC
[4] = tested on: NCI-H23 lung
[5] = tested on: MOLT-4 leukemia
[6] = tested on: SF-539 CNS
[7] = tested on: CCRF-CEM leukemia
[8] = tested on: SR leukemia
[9] = tested on: HCC-2998 colon
[10] = tested on: PC-3 prostate
[11] = tested on: RPMI-8226 leukemia
[12] = tested on: OVCAR-5 ovarian
[13] = tested on: HT29 colon
[14] = tested on: MDA-MB-231 breast
[15] = tested on: SNB-75 CNS
[16] = tested on: KM12 colon
[17] = tested on: SK-MEL-28 melanoma
[18] = tested on: T-47D breast
[19] = tested on: IGROV1 ovarian
[20] = tested on: SF-295 CNS
[21] = tested on: NCI/ADR-RES ovarian
[22] = tested on: HL-60(TB) leukemia
[23] = tested on: SW-620 colon
[24] = tested on: 786-0 renal
[25] = tested on: DU-145 prostate
[26] = tested on: MCF7 breast
[27] = tested on: COLO 205 colon
[28] = tested on: SN12C renal
[29] = tested on: NCI-H460 lung
[30] = tested on: HOP-92 NSCLC
[31] = tested on: LOX IMVI melanoma
[32] = tested on: NCI-H226 lung
[33] = tested on: M14 melanoma
[34] = tested on: NCI-H522 lung
[35] = tested on: OVCAR-3 ovarian
[36] = tested on: UO-31 renal
[37] = tested on: SF-268 CNS
[38] = tested on: OVCAR-4 ovarian
[39] = tested on: EKVX NSCLC
[40] = tested on: HS 578T breast
[41] = tested on: A498 renal
[42] = tested on: HCT-15 colon
[43] = tested on: SK-MEL-5 melanoma
[44] = tested on: K-562 leukemia
[45] = tested on: MALME-3M melanoma
[46] = tested on: U251 CNS
[47] = tested on: RXF 393 renal
[48] = tested on: TK-10 renal
[49] = tested on: HOP-62 NSCLC
[50] = tested on: SNB-19 CNS
[51] = tested on: HCT-116 colon
[52] = tested on: MDA-MB-435
[53] = tested on: OVCAR-8 ovarian
[54] = tested on: SK-MEL-2 melanoma
[55] = tested on: CAKI-1 renal
[56] = tested on: UACC-62 melanoma
[57] = tested on: BT-549 breast

COc1cc2c3c(n(CCCn4ccnc4)c(=O)c2cc1OC)-c1cc2c(cc1C3=O)OCO2
GI50 [1]: < 10 nM | TGI [1]: > 100000 nM | GI50 [2]: 1200 nM | TGI [2]: 26800 nM | GI50 [3]: 52.8 nM | TGI [3]: > 100000 nM | GI50 [4]: 16.2 nM | TGI [4]: 164 nM | GI50 [5]: < 10 nM | TGI [5]: < 10 nM | GI50 [6]: < 19.3 nM | GI50 [7]: < 10 nM | TGI [7]: < 10 nM | GI50 [8]: < 10 nM | TGI [8]: < 10 nM | GI50 [9]: < 10 nM | TGI [9]: 34.5 nM | GI50 [10]: 1280 nM | TGI [10]: > 100000 nM | GI50 [11]: < 10 nM | TGI [11]: 153 nM | GI50 [12]: 141 nM | TGI [12]: 8330 nM | GI50 [13]: 94.8 nM | TGI [13]: > 100000 nM | GI50 [14]: 347 nM | TGI [14]: 3570 nM | GI50 [15]: 34.5 nM | TGI [15]: > 100000 nM | GI50 [16]: 142 nM | TGI [16]: 9320 nM | GI50 [17]: > 100000 nM | TGI [17]: > 100000 nM | GI50 [18]: < 10 nM | TGI [18]: < 10 nM | GI50 [19]: 959 nM | TGI [19]: > 100000 nM | GI50 [20]: < 10 nM | TGI [20]: 1210 nM | GI50 [21]: 28.5 nM | TGI [21]: 3590 nM | GI50 [22]: < 10 nM | TGI [22]: < 19.5 nM | GI50 [23]: < 10.9 nM | TGI [23]: > 100000 nM | GI50 [24]: < 10 nM | TGI [24]: 91.7 nM | GI50 [25]: < 10 nM | TGI [25]: > 100000 nM | GI50 [26]: < 12.9 nM | TGI [26]: > 100000 nM | GI50 [27]: 312 nM | TGI [27]: > 100000 nM | GI50 [28]: < 10 nM | TGI [28]: 182 nM | GI50 [29]: < 10 nM | TGI [29]: > 21700 nM | TGI [30]: > 100000 nM | GI50 [31]: < 10 nM | TGI [31]: 171 nM | GI50 [32]: < 13.5 nM | TGI [32]: 160 nM | GI50 [33]: < 10 nM | TGI [33]: 100 nM | GI50 [34]: 369 nM | TGI [34]: > 100000 nM | GI50 [35]: 79.5 nM | TGI [35]: 804 nM | GI50 [36]: < 26.9 nM | TGI [36]: > 48300 nM | GI50 [37]: < 10 nM | TGI [37]: > 100000 nM | GI50 [38]: 2900 nM | TGI [38]: > 100000 nM | GI50 [39]: 1100 nM | TGI [39]: > 20900 nM | GI50 [40]: > 100000 nM | TGI [40]: > 100000 nM | GI50 [41]: 20.3 nM | TGI [41]: 87.8 nM | GI50 [42]: 824 nM | TGI [42]: > 100000 nM | GI50 [43]: 18.5 nM | TGI [43]: 133 nM | GI50 [44]: 12.2 nM | GI50 [45]: 791 nM | TGI [45]: > 31500 nM | GI50 [46]: < 10 nM | TGI [46]: 1030 nM | GI50 [47]: > 100000 nM | TGI [47]: > 100000 nM | GI50 [48]: 2220 nM | TGI [48]: > 100000 nM | GI50 [49]: < 10 nM | TGI [49]: 153 nM | GI50 [50]: 35.8 nM | TGI [50]: > 100000 nM | GI50 [51]: < 10 nM | TGI [51]: 148 nM | GI50 [52]: 72.8 nM | TGI [52]: 1670 nM | GI50 [53]: 280 nM | TGI [53]: > 100000 nM | GI50 [54]: > 100000 nM | TGI [54]: > 100000 nM | GI50 [55]: < 10 nM | TGI [55]: 27 nM | GI50 [56]: < 10 nM | TGI [56]: 93.7 nM

COc1ccc(O)c2c(=O)c3c(OC)cc4c(c3oc12)[C@@H]1C=CO[C@@H]1O4
GI50 [1]: 321 nM | TGI [1]: 5640 nM | GI50 [57]: 4770 nM | TGI [57]: 36500 nM | GI50 [8]: 51.8 nM | GI50 [10]: > 21400 nM | TGI [10]: > 100000 nM | GI50 [14]: 7900 nM | TGI [14]: > 100000 nM | GI50 [18]: 475 nM | TGI [18]: 13300 nM | GI50 [24]: 9870 nM | TGI [24]: > 60500 nM | GI50 [25]: 3030 nM | TGI [25]: > 34900 nM | GI50 [33]: > 21400 nM | TGI [33]: > 100000 nM | GI50 [40]: 3960 nM | TGI [40]: > 43000 nM | GI50 [48]: 4510 nM | TGI [48]: 34900 nM | GI50 [52]: 3300 nM | TGI [52]: > 100000 nM

From PubChem BioAssay (NCI)
